Test results: US12291607B2, “Polymer material and method for producing same” (Osaka University, priority 2019, dated 2025)

Assay: Solubility of host (Ac-CDAA) and guest (ADAA) monomers in third polymerizable monomers
Format: physicochemical
Description: The phrase “the host group-containing polymerizable monomer and the guest group-containing polymerizable monomer are dissolved in the third polymerizable monomer” means that the mixture of the host group-containing polymerizable monomer and the guest group-containing polymerizable monomer in a total amount of 1 part by weight or more is dissolved per 100 parts by weight of the third polymerizable monomer at a temperature of 20° C. It is preferable that the mixture of the host group-containing polymerizable monomer and the guest group-containing polymerizable monomer in a total amount of 1 part by weight or more, and particularly preferably 10 parts by weight or more, is dissolved per 100 parts by weight of the third polymerizable monomer at a temperature of 20° C.
(§1) The solubility of Ac-CDAA (host group-containing polymerizable monomer) in the following various monomers (third polymerizable monomers) was as follows: • less than 1 g for 100 g of 2EHA (20° C.) • less than 1 g for 100 g of OctA (octyl acrylate) (20° C.) • 10 g or more for 100 g of 2MEA (20° C.) • 10 g or more for 100 g of 4HBA (20° C.) • 10 g or more for 100 g of DMAA (20° C.)
as §1, with “Further, the” for “The”, “ADAA (guest” for “Ac-CDAA (host”, “OctA” for “OctA (octyl acrylate)”

solubility in 2EHA (for 100 g of 2EHA (20° C.)): less than 1 g
solubility in 2MEA (for 100 g of 2MEA (20° C.)): ≥ 10 g
solubility in 4HBA (for 100 g of 4HBA (20° C.)): ≥ 10 g
solubility in DMAA (for 100 g of DMAA (20° C.)): ≥ 10 g
solubility in OctA (for 100 g of OctA (octyl acrylate) (20° C.)): less than 1 g
SMILES: C=CC(=O)NC12CC3CC(CC(C3)C1)C2 [ADAA, N-(1-adamantyl) acrylamide]
